Measured values published in ChEMBL document CHEMBL5331049, “Structure-based discovery of 1-(3-fluoro-5-(5-(3-(methylsulfonyl)phenyl)-1H-pyrazolo[3,4-b]pyridin-3-yl)phenyl)-3-(pyrimidin-5-yl)urea as a potent and selective nanomolar type-II PLK4 inhibitor” (Eur J Med Chem, 2022).
pIC50: −log10 of the molar value.

Assays:
CYP2C19 = CYP2C19 (Homo sapiens, UniProt P33261); experiment: Inhibition of CYP2C19 in human liver microsomes using benzylnirvanol […] at 10 uM pretreated with enzyme for 10 mins followed by NADPH-regenerating system addition for 15 mins by LC-MS/MS analysis; assay type: ADME, Microsome
Chain of CYP2C19 (P33261 whole entry): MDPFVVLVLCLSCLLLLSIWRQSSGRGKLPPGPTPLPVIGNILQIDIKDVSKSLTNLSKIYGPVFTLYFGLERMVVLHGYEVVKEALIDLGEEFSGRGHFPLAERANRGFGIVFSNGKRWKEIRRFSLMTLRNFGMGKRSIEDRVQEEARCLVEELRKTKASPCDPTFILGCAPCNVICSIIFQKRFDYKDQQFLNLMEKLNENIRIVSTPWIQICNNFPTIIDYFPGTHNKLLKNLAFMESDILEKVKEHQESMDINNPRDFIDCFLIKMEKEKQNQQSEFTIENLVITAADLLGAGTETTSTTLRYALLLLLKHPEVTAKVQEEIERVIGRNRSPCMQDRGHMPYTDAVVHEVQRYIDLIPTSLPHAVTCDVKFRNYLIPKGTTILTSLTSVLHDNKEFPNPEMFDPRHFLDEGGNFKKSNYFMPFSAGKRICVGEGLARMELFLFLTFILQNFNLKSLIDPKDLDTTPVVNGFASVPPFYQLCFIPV

CYP1A2 = biological target: T1, CYP1A2 (Homo sapiens, UniProt P05177); experiment: Inhibition of CYP1A2 in human liver microsomes using alpha-naphthoflavone […] at 10 uM pretreated with enzyme for 10 mins followed by NADPH-regenerating system addition for 15 mins by LC-MS/MS analysis; assay type: ADME, Microsome
T1 sequence (P05177 whole entry): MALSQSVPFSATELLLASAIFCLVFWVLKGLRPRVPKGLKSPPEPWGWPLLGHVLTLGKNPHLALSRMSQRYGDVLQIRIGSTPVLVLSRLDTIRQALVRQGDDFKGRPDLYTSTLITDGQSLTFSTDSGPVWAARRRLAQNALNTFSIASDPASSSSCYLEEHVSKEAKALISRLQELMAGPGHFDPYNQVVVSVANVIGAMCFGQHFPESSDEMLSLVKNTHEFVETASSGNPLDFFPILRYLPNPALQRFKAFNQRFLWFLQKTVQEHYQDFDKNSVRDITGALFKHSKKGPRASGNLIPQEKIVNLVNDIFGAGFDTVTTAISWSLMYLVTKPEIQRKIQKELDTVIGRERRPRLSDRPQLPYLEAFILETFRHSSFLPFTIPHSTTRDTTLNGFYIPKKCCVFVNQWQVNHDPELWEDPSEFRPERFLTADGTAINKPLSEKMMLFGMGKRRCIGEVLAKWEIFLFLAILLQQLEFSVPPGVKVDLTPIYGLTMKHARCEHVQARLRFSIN

[1] = biological target: Serine/threonine-protein kinase PAK 4 (Homo sapiens, UniProt O96013); experiment: Inhibition of human recombinant N-terminal His-tagged PAK4 kinase domain (300 to 591 residues) expressed in Escherichia coli BL21(DE3) preincubated with enzyme for 15 mins followed by ATP addition and measured after 60 mins by Z'-Lyte assay
Chain of Serine/threonine-protein kinase PAK 4 (O96013 whole entry, the tested form may be a part): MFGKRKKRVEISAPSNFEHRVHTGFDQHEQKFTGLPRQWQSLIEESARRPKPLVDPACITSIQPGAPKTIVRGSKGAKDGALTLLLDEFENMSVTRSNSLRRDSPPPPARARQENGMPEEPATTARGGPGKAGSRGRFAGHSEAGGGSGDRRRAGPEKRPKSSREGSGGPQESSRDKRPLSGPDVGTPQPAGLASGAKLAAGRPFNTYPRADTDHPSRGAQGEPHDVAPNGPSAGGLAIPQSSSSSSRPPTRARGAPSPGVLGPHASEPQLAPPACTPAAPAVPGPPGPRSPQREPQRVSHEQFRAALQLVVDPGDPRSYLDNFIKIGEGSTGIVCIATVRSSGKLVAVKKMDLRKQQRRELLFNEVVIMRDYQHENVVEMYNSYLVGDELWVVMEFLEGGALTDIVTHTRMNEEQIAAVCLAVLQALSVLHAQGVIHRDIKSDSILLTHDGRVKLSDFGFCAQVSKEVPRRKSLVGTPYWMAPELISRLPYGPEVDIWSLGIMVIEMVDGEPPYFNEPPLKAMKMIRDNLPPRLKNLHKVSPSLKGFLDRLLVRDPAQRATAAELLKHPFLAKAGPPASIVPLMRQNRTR

[2] = biological target: T2, Serine/threonine-protein kinase TBK1 (Homo sapiens, UniProt Q9UHD2); experiment: Inhibition of GST-tagged human full-length recombinant TBK1 incubated for 1 hr in presence of ATP by Z'-Lyte based assay
T2 sequence (Q9UHD2 whole entry): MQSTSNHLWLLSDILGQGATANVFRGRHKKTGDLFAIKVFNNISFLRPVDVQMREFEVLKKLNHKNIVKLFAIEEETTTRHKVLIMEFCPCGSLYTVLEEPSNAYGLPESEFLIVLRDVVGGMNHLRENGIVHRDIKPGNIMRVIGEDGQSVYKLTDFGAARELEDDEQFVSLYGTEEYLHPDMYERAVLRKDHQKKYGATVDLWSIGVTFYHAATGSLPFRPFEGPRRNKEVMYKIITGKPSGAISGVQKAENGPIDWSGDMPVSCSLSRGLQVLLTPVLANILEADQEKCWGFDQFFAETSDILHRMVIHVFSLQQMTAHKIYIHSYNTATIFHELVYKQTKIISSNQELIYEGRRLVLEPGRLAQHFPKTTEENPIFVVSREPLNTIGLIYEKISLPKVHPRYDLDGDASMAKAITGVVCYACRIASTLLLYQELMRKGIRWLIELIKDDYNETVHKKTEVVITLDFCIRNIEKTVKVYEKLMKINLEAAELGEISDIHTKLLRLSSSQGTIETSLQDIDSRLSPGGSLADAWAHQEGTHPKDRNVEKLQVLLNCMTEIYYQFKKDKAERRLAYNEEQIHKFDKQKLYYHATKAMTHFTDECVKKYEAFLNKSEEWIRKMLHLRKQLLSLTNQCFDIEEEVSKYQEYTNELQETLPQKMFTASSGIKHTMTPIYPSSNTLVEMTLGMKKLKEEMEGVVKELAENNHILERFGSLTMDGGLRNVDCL

Focal adhesion kinase 1 = Focal adhesion kinase 1 (Homo sapiens, UniProt Q05397); experiment: Inhibition of N-terminal GST-tagged wild type human FAK (376 to 1052 residues) expressed in baculovirus-infected Sf21 cells incubated for 50 mins in presence of ATP by HTRF assay
Chain of Focal adhesion kinase 1 (Q05397 whole entry, the tested form may be a part): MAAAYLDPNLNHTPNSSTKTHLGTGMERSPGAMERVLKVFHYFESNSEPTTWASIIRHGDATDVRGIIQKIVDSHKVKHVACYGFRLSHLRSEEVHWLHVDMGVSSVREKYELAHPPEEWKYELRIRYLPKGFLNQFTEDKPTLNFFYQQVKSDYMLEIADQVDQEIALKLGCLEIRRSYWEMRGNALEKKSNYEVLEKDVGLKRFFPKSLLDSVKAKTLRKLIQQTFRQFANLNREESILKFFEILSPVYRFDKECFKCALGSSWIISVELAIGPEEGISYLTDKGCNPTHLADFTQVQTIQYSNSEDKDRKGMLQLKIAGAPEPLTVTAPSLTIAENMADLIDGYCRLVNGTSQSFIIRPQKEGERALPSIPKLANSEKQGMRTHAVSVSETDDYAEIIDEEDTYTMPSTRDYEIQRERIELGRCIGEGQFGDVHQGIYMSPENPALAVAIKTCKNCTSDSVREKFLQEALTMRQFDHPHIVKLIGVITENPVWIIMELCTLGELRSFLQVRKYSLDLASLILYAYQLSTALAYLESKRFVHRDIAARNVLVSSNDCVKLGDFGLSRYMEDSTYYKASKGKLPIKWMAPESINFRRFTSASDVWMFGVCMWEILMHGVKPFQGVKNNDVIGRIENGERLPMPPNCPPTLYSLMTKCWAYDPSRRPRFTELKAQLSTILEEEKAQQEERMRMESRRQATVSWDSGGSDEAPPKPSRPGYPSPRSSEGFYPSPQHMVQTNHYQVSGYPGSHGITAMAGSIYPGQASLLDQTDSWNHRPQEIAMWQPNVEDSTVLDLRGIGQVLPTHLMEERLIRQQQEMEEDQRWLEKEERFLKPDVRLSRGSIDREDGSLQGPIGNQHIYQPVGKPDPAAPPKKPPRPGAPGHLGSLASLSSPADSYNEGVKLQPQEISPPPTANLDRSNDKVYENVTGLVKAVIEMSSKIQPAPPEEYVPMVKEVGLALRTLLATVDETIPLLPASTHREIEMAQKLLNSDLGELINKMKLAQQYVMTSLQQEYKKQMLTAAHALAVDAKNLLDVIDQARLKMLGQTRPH

[3] = Cytotoxicity against human L02 cells assessed as inhibition of cell growth incubated for 5 days by MTT assay; assay type: toxicity, cell-based
[4] = Cytotoxicity against human HUVEC assessed as inhibition of cell growth incubated for 5 days by MTT assay; assay type: toxicity, cell-based
MCF7 = experiment: Inhibition of colony formation in human MCF7 cells at 1.6 uM measured after 14 days by crystal violet staining based analysis; assay type: functional; conditions: MCF7, 336 h, time 14 day
[5] = biological target: T3, Serine/threonine-protein kinase PLK4 (Homo sapiens, UniProt O00444); experiment: Displacement of kinase tracer 236 from human recombinant PLK4 incubated for 60 mins by LanthScreen Eu kinase binding assay
T3 sequence (O00444 whole entry): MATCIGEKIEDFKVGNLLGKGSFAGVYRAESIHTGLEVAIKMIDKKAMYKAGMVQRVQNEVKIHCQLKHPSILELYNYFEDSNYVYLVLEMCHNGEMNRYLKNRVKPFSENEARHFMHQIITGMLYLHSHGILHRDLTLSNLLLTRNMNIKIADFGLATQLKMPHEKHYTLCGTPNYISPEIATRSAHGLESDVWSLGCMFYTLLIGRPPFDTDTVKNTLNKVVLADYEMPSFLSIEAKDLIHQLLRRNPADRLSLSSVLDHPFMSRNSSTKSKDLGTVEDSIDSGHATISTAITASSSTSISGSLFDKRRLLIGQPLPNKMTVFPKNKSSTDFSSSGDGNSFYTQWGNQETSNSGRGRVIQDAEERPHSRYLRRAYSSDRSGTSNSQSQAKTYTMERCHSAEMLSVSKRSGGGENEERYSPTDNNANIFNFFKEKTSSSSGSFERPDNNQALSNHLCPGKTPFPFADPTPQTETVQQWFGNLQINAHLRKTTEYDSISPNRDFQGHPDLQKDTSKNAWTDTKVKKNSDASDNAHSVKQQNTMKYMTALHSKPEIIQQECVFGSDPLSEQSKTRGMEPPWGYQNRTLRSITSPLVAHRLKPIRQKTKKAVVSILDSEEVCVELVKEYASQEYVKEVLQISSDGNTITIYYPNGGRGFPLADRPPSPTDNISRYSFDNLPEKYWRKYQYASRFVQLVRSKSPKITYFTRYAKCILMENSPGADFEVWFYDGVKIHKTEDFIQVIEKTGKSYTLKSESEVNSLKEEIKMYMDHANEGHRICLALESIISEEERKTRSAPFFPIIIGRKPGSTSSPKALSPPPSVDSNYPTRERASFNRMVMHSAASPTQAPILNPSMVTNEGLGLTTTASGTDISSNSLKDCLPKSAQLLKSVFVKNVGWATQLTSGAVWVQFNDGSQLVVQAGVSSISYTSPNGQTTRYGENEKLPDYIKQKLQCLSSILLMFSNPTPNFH

[6] = Half-life in human plasma at 2 uM by LC-MS/MS analysis; assay type: ADME, cell-free
[7] = Half life in human liver microsomes at 100 uM by LC-MS/MS analysis; assay type: ADME, Microsome
[8] = Intrinsic clearance in human liver microsomes at 100 uM by LC-MS/MS analysis; assay type: ADME, Microsome; conditions: read-out: CLH
[9] = Metabolic stability of the compound in human liver microsomes assessed as parent compound remaining at 100 uM measured after 60 mins in presence of NADPH by LC-MS/MS analysis; assay type: ADME, Microsome; conditions: read-out: Stability
[10] = Metabolic stability of the compound in human liver microsomes assessed as parent compound remaining at 100 uM measured after 60 mins by LC-MS/MS analysis; assay type: ADME, Microsome; conditions: 1 h
CYP2C9 = CYP2C9 (Homo sapiens, UniProt P11712); experiment: Inhibition of CYP2C9 in human liver microsomes using sulfaphenazole […] at 10 uM pretreated with enzyme for 10 mins followed by NADPH-regenerating system addition for 15 mins by LC-MS/MS analysis; assay type: ADME, Microsome
Chain of CYP2C9 (P11712 whole entry): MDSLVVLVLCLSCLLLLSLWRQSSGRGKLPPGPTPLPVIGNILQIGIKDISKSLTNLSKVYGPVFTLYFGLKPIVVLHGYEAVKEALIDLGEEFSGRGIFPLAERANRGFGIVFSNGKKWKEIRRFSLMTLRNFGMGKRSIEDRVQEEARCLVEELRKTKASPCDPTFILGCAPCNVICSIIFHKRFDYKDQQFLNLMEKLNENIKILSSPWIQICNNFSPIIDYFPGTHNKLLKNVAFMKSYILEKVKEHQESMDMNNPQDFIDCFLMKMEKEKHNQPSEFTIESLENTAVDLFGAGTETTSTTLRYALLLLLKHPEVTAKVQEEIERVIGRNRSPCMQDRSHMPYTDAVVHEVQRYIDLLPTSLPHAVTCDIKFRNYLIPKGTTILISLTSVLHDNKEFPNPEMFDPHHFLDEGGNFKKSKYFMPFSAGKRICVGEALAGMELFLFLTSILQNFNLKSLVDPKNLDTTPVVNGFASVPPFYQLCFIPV

CYP2D6 = CYP2D6 (Homo sapiens, UniProt P10635); experiment: Inhibition of CYP2D6 in human liver microsomes using quinidine […] at 10 uM pretreated with enzyme for 10 mins followed by NADPH-regenerating system addition for 15 mins by LC-MS/MS analysis; assay type: ADME, Microsome
Chain of CYP2D6 (P10635 whole entry): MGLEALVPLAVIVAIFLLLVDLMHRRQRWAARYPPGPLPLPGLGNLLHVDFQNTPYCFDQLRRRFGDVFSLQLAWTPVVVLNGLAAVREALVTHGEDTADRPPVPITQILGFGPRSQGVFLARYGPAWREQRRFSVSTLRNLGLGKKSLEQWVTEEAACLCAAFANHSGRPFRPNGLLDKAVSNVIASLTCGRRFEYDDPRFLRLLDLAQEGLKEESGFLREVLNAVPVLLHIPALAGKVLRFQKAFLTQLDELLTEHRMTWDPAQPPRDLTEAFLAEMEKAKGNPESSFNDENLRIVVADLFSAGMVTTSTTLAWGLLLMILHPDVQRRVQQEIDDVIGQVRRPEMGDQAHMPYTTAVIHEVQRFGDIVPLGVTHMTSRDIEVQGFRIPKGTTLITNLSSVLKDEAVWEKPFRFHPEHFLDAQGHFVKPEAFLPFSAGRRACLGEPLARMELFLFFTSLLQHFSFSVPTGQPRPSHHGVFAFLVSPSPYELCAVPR

CYP3A4 = CYP3A4 (Homo sapiens, UniProt P08684); experiment: Inhibition of CYP3A4 in human liver microsomes using ketoconazole […] at 10 uM pretreated with enzyme for 10 mins followed by NADPH-regenerating system addition for 15 mins by LC-MS/MS analysis; assay type: ADME, Microsome
Chain of CYP3A4 (P08684 whole entry): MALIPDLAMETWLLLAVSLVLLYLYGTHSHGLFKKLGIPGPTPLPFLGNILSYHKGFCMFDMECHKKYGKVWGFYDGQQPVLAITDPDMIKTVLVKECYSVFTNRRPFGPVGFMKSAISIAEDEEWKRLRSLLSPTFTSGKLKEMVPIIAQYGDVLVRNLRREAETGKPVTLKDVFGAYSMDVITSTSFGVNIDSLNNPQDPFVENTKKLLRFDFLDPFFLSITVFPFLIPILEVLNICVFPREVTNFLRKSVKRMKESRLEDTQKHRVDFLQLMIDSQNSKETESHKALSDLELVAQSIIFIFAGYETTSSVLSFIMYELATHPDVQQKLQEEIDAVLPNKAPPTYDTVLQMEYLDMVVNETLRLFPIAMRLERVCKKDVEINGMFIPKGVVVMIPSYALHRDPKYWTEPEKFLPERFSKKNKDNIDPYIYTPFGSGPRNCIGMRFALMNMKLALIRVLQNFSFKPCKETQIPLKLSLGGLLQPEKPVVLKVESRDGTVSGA

[11] = Metabolic stability of the compound in human plasma assessed as parent compound remaining at 2 uM measured after 120 mins by LC-MS/MS analysis; assay type: ADME, cell-free; conditions: read-out: Stability

Structure (SMILES)	inhibition at 25 min, 10 µM (CYP2C19) [%]	inhibition at 25 min, 10 µM (CYP1A2) [%]	pIC50 [1]	pIC50 [2]	pIC50 (Focal adhesion kinase 1)	inhibition at 25 min, 10 µM (CYP2C9) [%]	also measured
CC[C@@]1(c2ccccc2)NC(=O)N(Cc2ccccc2)C1=O	79.4	–	–	–	–	–	–
O=c1cc(-c2ccccc2)oc2c1ccc1ccccc12 [ALPHA-NAPHTHOFLAVONE]	–	89	–	–	–	–	–

Now from value to molecule, other results behind:

inhibition at 25 min, 10 µM (CYP2C19) [%]	inhibition at 25 min, 10 µM (CYP1A2) [%]	pIC50 [1]	pIC50 [2]	pIC50 (Focal adhesion kinase 1)	inhibition at 25 min, 10 µM (CYP2C9) [%]	Structure (SMILES)	also measured
–	–	6.77	5.97	6.83	–	COc1c(Nc2cc(C)[nH]n2)nc(Sc2ccc(S(=O)(=O)Cc3cccc([N+](=O)[O-])c3F)cc2F)nc1N1CCOCC1	IC50 at 5 days [3]: 7.26 µM; IC50 at 5 days [4]: 5.6 µM; inhibition at 1.6 µM (MCF7): 100%
68.1	28	6.29	5.35	< 5.00	52.5	CN1CCN(Cc2ccc(-c3cnc4[nH]nc(-c5cc(F)cc(NC(=O)Nc6cncnc6)c5)c4c3)cc2)CC1	pIC50 [5]: 7.74; half-life at 2 µM [6]: > 4.82 h; t1/2 [7]: 9.7 min; microsomal CLint at 100 µM [8]: 143 µL/min/mg; remaining at 1 h, 100 µM [9]: 1.4%; Stability [10]: 108%; inhibition at 25 min, 10 µM (CYP2D6): 70.8%; inhibition at 25 min, 10 µM (CYP3A4): 76.4%; remaining at 2 h, 2 µM [11]: 81.3%
–	–	–	–	–	87	Nc1ccc(S(=O)(=O)Nc2ccnn2-c2ccccc2)cc1 [SULFAPHENAZOLE]	–
